Assay results taken from patent publication US9833497B2, “Human originated EGF domain proteins and use of the same” (CHENGDU SOURCEBIO LIMITED-LIABILITY COMPANY, priority 2013, dated 2017).

Columns and labels:
Format in all cases: cell-based
[1] = test system: E. coli DH5α; assay: Antibacterial activity: MIC and growth curve against E. coli DH5α in 96-well plate; conditions: minimal inhibitory concentration against E. coli DH5α; 96-well plate, 5×10^5 CFU/mL, 37° C., judged after 8 h
Summary of the method: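 MIC taken as lowest protein level with no bacterial growth, tracked by A600 every 30 min during 37 °C, 175 rpm culture. Two-fold protein series 50-12.5 μg/mL final, triplicate wells, against 5×10^5 CFU/mL of LB-washed mid-log cells.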

[2] = test system: E. coli BL21; assay: MIC against Gram-negative bacteria: E. coli BL21; conditions: 5×10^5 CFU/mL; for MIC E. coli BL21: two-fold serial dilution
Summary of the method: (§1)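 Antibacterial activity of purified human EGF domain proteins: two-fold concentration series, triplicate wells, LB broth, 5×10^5 CFU/mL bacteria, 37° C shaking incubation. The lowest concentration without growth defines the MIC.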

[3] = test system: Pseudomonas aeruginosa; assay: MIC against Gram-negative bacteria: Pseudomonas aeruginosa; conditions: 5×10^5 CFU/mL; for MIC P. aeruginosa: two-fold serial dilution
Summary of the method: as §1

[4] = test system: Klebsiella pneumonia; assay: MIC against Gram-negative bacteria: Klebsiella pneumonia; conditions: 5×10^5 CFU/mL; for MIC K. pneumonia: two-fold serial dilution
Summary of the method: as §1

[5] = test system: Enterobacter cloacae; assay: MIC against Gram-negative bacteria: Enterobacter cloacae; conditions: 5×10^5 CFU/mL; for MIC E. cloacae: two-fold serial dilution
Summary of the method: as §1

[6] = test system: Aeromonas hydrophila; assay: MIC against Gram-negative bacteria: Aeromonas hydrophila; conditions: 5×10^5 CFU/mL; for MIC A. hydrophila: two-fold serial dilution
Summary of the method: as §1

[7] = test system: Citrobacter diversus; assay: MIC against Gram-negative bacteria: Citrobacter diversus; conditions: 5×10^5 CFU/mL; for MIC C. diversus: two-fold serial dilution
Summary of the method: as §1

[8] = test system: Moraxella catarrhalis; assay: MIC against Gram-negative bacteria: Moraxella catarrhalis; conditions: 5×10^5 CFU/mL; for MIC M. catarrhalis: two-fold serial dilution
Summary of the method: as §1

[9] = test system: Proteus mirabilis; assay: MIC against Gram-negative bacteria: Proteus mirabilis; conditions: 5×10^5 CFU/mL; for MIC P. mirabilis: two-fold serial dilution
Summary of the method: as §1

[10] = test system: Proteus vulgaris; assay: MIC against Gram-negative bacteria: Proteus vulgaris; conditions: 5×10^5 CFU/mL; for MIC P. vulgaris: two-fold serial dilution
Summary of the method: as §1

[11] = test system: Serratia marcescens; assay: MIC against Gram-negative bacteria: Serratia marcescens; conditions: 5×10^5 CFU/mL; for MIC S. marcescens: two-fold serial dilution
Summary of the method: as §1

[12] = P. aeruginosa, 10 h cultivation at 37° C.
[13] = K. pneumonia, 10 h cultivation at 37° C.
[14] = E. cloacae, 10 h cultivation at 37° C.
[15] = A. hydrophila, 10 h cultivation at 37° C.
[16] = C. diversus, 10 h cultivation at 37° C.
[17] = M. catarrhalis, 10 h cultivation at 37° C.
[18] = P. mirabilis, 10 h cultivation at 37° C.
[19] = P. vulgaris, 10 h cultivation at 37° C.
[20] = S. marcescens, 10 h cultivation at 37° C.

“PRT250 (DVDECRTSITLCSHHCFNTAGSFTCGCPHDLVLGVDGRTCM; listed as Homo sapiens)” was tested, and the MIC [1] was 12.5 µg/mL, the “MIC (μg/mL) E. coli BL21” value ([2]; 10 h cultivation at 37° C.) was 12.5 µg/mL and the “MIC (μg/mL) P. aeruginosa” value [3, 12] was 12.5 µg/mL. The “MIC (μg/mL) K. pneumonia” value [4, 13] was 12.5 µg/mL, the “MIC (μg/mL) E. cloacae” value [5, 14] was 12.5 µg/mL and the “MIC (μg/mL) A. hydrophila” value [6, 15] was 25 µg/mL. The “MIC (μg/mL) C. diversus” value [7, 16] was 12.5 µg/mL, the “MIC (μg/mL) M. catarrhalis” value [8, 17] was 25 µg/mL and the “MIC (μg/mL) P. mirabilis” value [9, 18] was 12.5 µg/mL. For the same substance, the “MIC (μg/mL) P. vulgaris” value [10, 19] was 25 µg/mL and the “MIC (μg/mL) S. marcescens” value [11, 20] was 12.5 µg/mL.
“PRT815 (YGPSCQTRCSCANDGHCHPATGHCSCAPGWTGFSCQ; listed as Homo sapiens)” was tested, and the MIC [1] was 25 µg/mL, the “MIC (μg/mL) E. coli BL21” value ([2]; 10 h cultivation at 37° C.) was 12.5 µg/mL and the “MIC (μg/mL) P. aeruginosa” value [3, 12] was 12.5 µg/mL. The “MIC (μg/mL) K. pneumonia” value [4, 13] was 12.5 µg/mL, the “MIC (μg/mL) E. cloacae” value [5, 14] was 25 µg/mL and the “MIC (μg/mL) A. hydrophila” value [6, 15] was 12.5 µg/mL. The “MIC (μg/mL) C. diversus” value [7, 16] was 25 µg/mL, the “MIC (μg/mL) M. catarrhalis” value [8, 17] was 50 µg/mL and the “MIC (μg/mL) P. mirabilis” value [9, 18] was 25 µg/mL. The “MIC (μg/mL) P. vulgaris” value [10, 19] was 12.5 µg/mL and the “MIC (μg/mL) S. marcescens” value [11, 20] was 25 µg/mL.
With “PRT1153 (TVSTCDPEHDPPHHCSRGATCISLPHGYTCFCPLGTTGIYCE; listed as Homo sapiens)” the MIC [1] was 12.5 µg/mL, the “MIC E. coli BL21” value ([2]; 10 h cultivation at 37° C.) was 50 µg/mL and the “MIC P. aeruginosa” value ([3]; 10 h cultivation at 37° C.) was 12.5 µg/mL. The “MIC K. pneumonia” value ([4]; 10 h cultivation at 37° C.) was 50 µg/mL, the “MIC E. cloacae” value ([5]; 10 h cultivation at 37° C.) was 12.5 µg/mL and the “MIC A. hydrophila” value ([6]; 10 h cultivation at 37° C.) was 50 µg/mL. The “MIC C. diversus” value ([7]; 10 h cultivation at 37° C.) was 25 µg/mL, the “MIC M. catarrhalis” value ([8]; 10 h cultivation at 37° C.) was 12.5 µg/mL and the “MIC P. mirabilis” value ([9]; 10 h cultivation at 37° C.) was 25 µg/mL. For the same substance, the “MIC P. vulgaris” value ([10]; 10 h cultivation at 37° C.) was 50 µg/mL and the “MIC S. marcescens” value ([11]; 10 h cultivation at 37° C.) was 12.5 µg/mL.
“PRT534 (CKCHKAGTVSGTGECRQGDGDCHCKSHVGGDSCDTCEDGYFALEKSNYFGCQG; listed as Homo sapiens)” was tested, and the MIC [1] was 50 µg/mL, the “MIC against E. coli BL21” value ([2]; 96-well plate, 37° C., 10 h) was 12.5 µg/mL and the “MIC against P. aeruginosa” value ([3]; 96-well plate, 37° C., 10 h) was 50 µg/mL. The “MIC against K. pneumonia” value ([4]; 96-well plate, 37° C., 10 h) was 12.5 µg/mL, the “MIC against E. cloacae” value ([5]; 96-well plate, 37° C., 10 h) was 50 µg/mL and the “MIC against A. hydrophila” value ([6]; 96-well plate, 37° C., 10 h) was 12.5 µg/mL. The “MIC against C. diversus” value ([7]; 96-well plate, 37° C., 10 h) was 50 µg/mL, the “MIC against M. catarrhalis” value ([8]; 96-well plate, 37° C., 10 h) was 12.5 µg/mL and the “MIC against P. mirabilis” value ([9]; 96-well plate, 37° C., 10 h) was 25 µg/mL. The “MIC against P. vulgaris” value ([10]; 96-well plate, 37° C., 10 h) was 50 µg/mL and the “MIC against S. marcescens” value ([11]; 96-well plate, 37° C., 10 h) was 25 µg/mL.
For “PRT758 (RVDHCAQQDHGCEQLCLNTEDSFVCQCSEGFLINEDLKTCS; listed as Homo sapiens)”, the MIC [1] was 12.5 µg/mL, the “MIC (μg/mL) E. coli BL21” value ([2]; 10 h cultivation at 37° C.) was 25 µg/mL and the “MIC (μg/mL) P. aeruginosa” value [3, 12] was 50 µg/mL. The “MIC (μg/mL) K. pneumonia” value [4, 13] was 50 µg/mL, the “MIC (μg/mL) E. cloacae” value [5, 14] was 25 µg/mL and the “MIC (μg/mL) A. hydrophila” value [6, 15] was 50 µg/mL. The “MIC (μg/mL) C. diversus” value [7, 16] was 25 µg/mL, the “MIC (μg/mL) M. catarrhalis” value [8, 17] was 12.5 µg/mL and the “MIC (μg/mL) P. mirabilis” value [9, 18] was 25 µg/mL. For the same substance, the “MIC (μg/mL) P. vulgaris” value [10, 19] was 12.5 µg/mL and the “MIC (μg/mL) S. marcescens” value [11, 20] was 12.5 µg/mL.
In the case of “PRT96 (AQRFCPDGSPSECHEHADCVLERDGSRSCVCAVGWAGNGILCG; listed as Homo sapiens)”, the MIC [1] is reported as 12.5 µg/mL, the “MIC (μg/mL) E. coli BL21” value ([2]; 96-well plate, 37° C., 10 h) is reported as 25 µg/mL and the “MIC (μg/mL) P. aeruginosa” value ([3]; Pseudomonas aeruginosa, 96-well plate, 37° C., 10 h) is reported as 12.5 µg/mL. For the same substance, the “MIC (μg/mL) K. pneumonia” value ([4]; Klebsiella pneumonia, 96-well plate, 37° C., 10 h) was 12.5 µg/mL, the “MIC (μg/mL) E. cloacae” value ([5]; Enterobacter cloacae, 96-well plate, 37° C., 10 h) was 12.5 µg/mL and the “MIC (μg/mL) A. hydrophila” value ([6]; Aeromonas hydrophila, 96-well plate, 37° C., 10 h) was 12.5 µg/mL. For the same substance, the “MIC (μg/mL) C. diversus” value ([7]; Citrobacter diversus, 96-well plate, 37° C., 10 h) was 12.5 µg/mL, the “MIC (μg/mL) M. catarrhalis” value ([8]; Moraxella catarrhalis, 96-well plate, 37° C., 10 h) was 12.5 µg/mL and the “MIC (μg/mL) P. mirabilis” value ([9]; Proteus mirabilis, 96-well plate, 37° C., 10 h) was 12.5 µg/mL. For the same substance, the “MIC (μg/mL) P. vulgaris” value ([10]; Proteus vulgaris, 96-well plate, 37° C., 10 h) was 25 µg/mL and the “MIC (μg/mL) S. marcescens” value ([11]; Serratia marcescens, 96-well plate, 37° C., 10 h) was 12.5 µg/mL.
“PRT1088 (PVNPCCYYPCQHQGICVRFGLDRYQCDCTRTGYSGPNCT; listed as Homo sapiens)” was tested, and the MIC [1] was 25 µg/mL, the “MIC E. coli BL21” value ([2]; 10 h cultivation at 37° C.) was 50 µg/mL and the “MIC P. aeruginosa” value ([3]; 10 h cultivation at 37° C.) was 50 µg/mL. The “MIC K. pneumonia” value ([4]; 10 h cultivation at 37° C.) was 12.5 µg/mL, the “MIC E. cloacae” value ([5]; 10 h cultivation at 37° C.) was 50 µg/mL and the “MIC A. hydrophila” value ([6]; 10 h cultivation at 37° C.) was 50 µg/mL. The “MIC C. diversus” value ([7]; 10 h cultivation at 37° C.) was 50 µg/mL, the “MIC M. catarrhalis” value ([8]; 10 h cultivation at 37° C.) was 25 µg/mL and the “MIC P. mirabilis” value ([9]; 10 h cultivation at 37° C.) was 12.5 µg/mL. For the same substance, the “MIC P. vulgaris” value ([10]; 10 h cultivation at 37° C.) was 25 µg/mL and the “MIC S. marcescens” value ([11]; 10 h cultivation at 37° C.) was 50 µg/mL.
